# Columns and labels:
# [1] = test system: Aspergillus niger ATCC®16404™; experiment: MBC determination, broth microdilution with CFU enumeration; assay type: cell-based; conditions: A. niger
# Procedure: (§1) The minimal bactericidal concentration (MBC) is defined as the lowest concentration of an antimicrobial agent that results in a complete killing of the microbial population (determined via standard CFU enumeration techniques) after overnight incubation. This endpoint measurement is used, together with the MIC (see above), to define the microbial susceptibility towards an antimicrobial agent. Here, the antimicrobial agent is a combination of the natural enzymes GOX+LPO.
# (§2) To determine the MBC of the described combinations, a classical broth microdilution assay combined with standard CFU enumeration techniques was used to determine the susceptibility of a series of microbes commonly detected in infected wounds, including (a) the Gram-positive bacterium Staphylococcus aureus ATCC® 6538™ (results shown below), (b) the Gram-negative bacterium Pseudomonas aeruginosa ATCC®9027™ (results shown below), (c) the yeast Candida albicans ATCC®10231™ (results shown below), and (d) the fungus Aspergillus niger ATCC®16404™ (results shown below). In brief, the broth microdilution assay was set up as previously described (see 2.1). After incubation, the MBC was determined by investigating the presence of viable microorganisms at the MIC and following higher concentrations (MICx2, MICx4, and so on) using standard CFU enumeration techniques. For each combination evaluated, this test was repeated at least 5 times. The collected data were further analyzed in MS Excel. Mean concentration data (expressed as log CFU/ml) were visualized in a table format in which the MBC was highlighted.
# [2] = test system: Pseudomonas aeruginosa ATCC®9027™; experiment: as above; assay type: cell-based; conditions: P. aeruginosa
# Procedure: as §1, §2
# [3] = test system: Aspergillus niger ATCC®16404™; experiment: MIC determination, broth microdilution, GOX+LPO with potentiator candidate; assay type: cell-based; conditions: A. niger
# Procedure: (§3) The minimum inhibitory concentration (MIC) is defined as the lowest concentration of an antimicrobial agent that results in a complete inhibition of microbial growth (determined via visual evaluation or absorbance measurements) after overnight incubation. This endpoint measurement is used to define the microbial susceptibility towards an antimicrobial agent. Here, the antimicrobial agent is a combination of the natural enzymes GOX+LPO.
# (§4) To determine the MIC of the described combinations, a classical broth microdilution assay was used to determine the susceptibility of a series of microbes commonly detected in infected wounds, including (a) the Gram-positive bacterium Staphylococcus aureus ATCC® 6538™ (results shown below), (b) the Gram-negative bacterium Pseudomonas aeruginosa ATCC®9027™ (results shown below), (c) the yeast Candida albicans ATCC®10231™ (results shown below), and (d) the fungus Aspergillus niger ATCC®16404™ (results shown below). In brief, a […] serial dilution of the enzymatic GOX+LPO solution was prepared in a transparent, flat-bottomed 96-well test plate with final concentrations ranging from 0.005 to 0.00000977% (v/v). To each well, a fixed volume of the enzymatic substrate containing 3,3% (w/v) glucose and 0,084% (w/v) potassium iodide, as well as the microbial inoculum with an OD600 of 0.1 was added. In the event the enzyme combination was evaluated in the presence of a potentiator candidate, the latter was added together with the enzymatic substrate in a final concentration ranging from 100 to 0,00125% (v/v). For each combination evaluated, a blank (no addition of microbial inoculum) was included. Positive (inoculum only) and negative (background solution only) were included to evaluate the performance of the test and to select the enzymatic GOX+LPO concentration at which no microbial growth is detected (i.e., absorbance equal to that of the background solution only). Then, the 96-well test plate was incubated for 24 hours at 37° C. (S. aureus, P. aeruginosa and C. albicans) or 25° C. (A. niger). After incubation, the absorbance of each well was measured using a plate spectrophotometer (Spectramax ID3, Molecular Devices). For each combination evaluated, this test was repeated at least 5 times. The collected data were further analyzed in MS Excel. Mean absorbance data were visualized in a table format in which the MIC was highlighted.
# [4] = test system: Staphylococcus aureus ATCC® 6538™; experiment: as above; assay type: cell-based; conditions: S. aureus
# Procedure: as §3, §4
# [5] = test system: Pseudomonas aeruginosa ATCC®9027™; experiment: as above; assay type: cell-based; conditions: P. aeruginosa
# Procedure: as §3, §4
# [6] = test system: Aspergillus niger ATCC®16404™; experiment: Absolute microbial counts in function of enzyme solution concentration; assay type: cell-based; conditions: 0.005%-0.000156% (v/v) GOX+LPO
# Source text: (§5) Absolute microbial counts in function of concentration of the antimicrobial agent tested are useful to monitor the bactericidal and fungicidal efficacy of that agent.
# (§6) To determine the absolute number of live microorganisms in function of different enzyme solution concentrations tested, a classical broth microdilution assay combined with standard CFU enumeration techniques was used to determine the susceptibility of a series of microbes commonly detected in infected wounds, including (a) the Gram-positive bacterium Staphylococcus aureus ATCC® 6538™ (results shown below), (b) the Gram-negative bacterium Pseudomonas aeruginosa ATCC®9027™ (results shown below), (c) the yeast Candida albicans ATCC®10231™ (results shown below), and (d) the fungus Aspergillus niger ATCC®16404™ (results shown below). In brief, the broth microdilution assay was set up as previously described (see 2.1). After incubation, the absolute microbial count at the MIC and following higher concentrations (MICx2, MICx4, and so on) was determined using standard CFU enumeration techniques. For each combination evaluated, this test was repeated at least 5 times. The collected data were further analyzed in MS Excel and expressed as log CFU/ml. Mean results were plotted in function of enzyme solution concentration.
# [7] = test system: Pseudomonas aeruginosa ATCC®9027™; experiment: as above; assay type: cell-based
# Source text: as §5, §6
# [8] = exemplary values; cited from earlier work
# [9] = enhancer 0,1%, 0,005%-0.000625% (v/v) GOX+LPO
# [10] = enhancer 1%, 0,005%-0.000156% (v/v) GOX+LPO
SMILES,"MBC: GOX+LPO enzyme solution needed ([2]; enhancer 0,1%)","increase in MBC compared to reference ([2]; enhancer 0,1%) [×]",MBC: GOX+LPO enzyme solution needed ([2]; enhancer 1%),increase in MBC compared to reference ([2]; enhancer 1%) [×],"MIC: GOX+LPO enzyme solution needed to completely inhibit growth ([5]; enhancer 0,1%)","increase in MIC compared to reference ([5]; enhancer 0,1%) [×]",MIC: GOX+LPO enzyme solution needed to completely inhibit growth ([5]; enhancer 1%),increase in MIC compared to reference ([5]; enhancer 1%) [×],"reduction in absolute P. aeruginosa counts compared to reference [7, 9]","reduction in absolute P. aeruginosa counts compared to reference [7, 10]",LogP (octanol/water partition coefficient) [8],further results
"NC(=O)C[C@H](N)C(=O)O [Asparagine, asparagine]",0.000625 % (v/v),2,0.000156 % (v/v),8,0.000625 % (v/v),2,0.000156 % (v/v),8,stronger reduction,stronger reduction,LogP = −3.82,MBC: GOX+LPO enzyme solution needed ([1]; enhancer 1%-0.05%): 0.000156 % (v/v); increase in MBC compared to reference ([1]; enhancer 1%-0.05%): 2 ×; MIC: GOX+LPO enzyme solution needed to completely inhibit growth ([3]; enhancer 1%-0.05%): 0.000156 % (v/v); increase in MIC compared to reference ([3]; enhancer 1%-0.05%): 2 ×; MIC: GOX+LPO enzyme solution needed to completely inhibit growth ([4]; enhancer 0.5% to 0.01%): 0.0000391 % (v/v); increase in MIC compared to reference or guaiacol solution ([4]; enhancer 0.5% to 0.01%): 2 ×; reduction in absolute A. niger counts compared to reference ([6]; enhancer 1-0.05%): stronger reduction
"NC(=O)CC[C@H](N)C(=O)O [Glutamine, glutamine]",0.000625 % (v/v),2,0.000156 % (v/v),8,0.000625 % (v/v),2,0.000156 % (v/v),8,stronger reduction,stronger reduction,LogP = −3.15,MBC: GOX+LPO enzyme solution needed ([1]; enhancer 1%-0.01%): 0.000156 % (v/v); increase in MBC compared to reference ([1]; enhancer 1%-0.01%): 2 ×; MIC: GOX+LPO enzyme solution needed to completely inhibit growth ([3]; enhancer 1%-0.01%): 0.000156 % (v/v); increase in MIC compared to reference ([3]; enhancer 1%-0.01%): 2 ×; MIC: GOX+LPO enzyme solution needed to completely inhibit growth ([4]; enhancer 1% to 0.01%): 0.0000391 % (v/v); increase in MIC compared to reference or guaiacol solution ([4]; enhancer 1% to 0.01%): 2 ×; reduction in absolute A. niger counts compared to reference ([6]; enhancer 1-0.01%): stronger reduction

# Reference: patent US20260273028A1, “PEROXIDASE COMPOSITIONS CONTAINING IMPROVED ENHANCING AGENTS” (FLEN HEALTH PHARMA NV, priority 2022, published 2026)
